Laboratory results: patent US4389394A, “Methods for reducing dental caries” (Talres Development (N.A.) N.V., priority 1978, dated 1983)
“Also recorded” adds a separate entry of the source.

Tests used:
[1] = system: Streptococcus mutans NCTC 10832; assay: (A) Effect on reduction of pH by Streptococcus mutans; assay type: cell-based; conditions: for pH: no amino acids, 0.05 molar each saccharide, 37° C
From the text: Mouth flora such as S. mutans cause dental caries by producing acid which erodes the tooth enamel. The cells exude a polysaccharide which firmly adheres them to the tooth surfaces as plaque, thus enhancing the local erosion by the acid. The effect of chlorodeoxysucroses on acid production by S. mutans in sucrose solutions was studied in comparison with the effect produced by xylitol, an agent proposed as a caries preventative.
(§1) Plain aqueous solutions were used and also solutions containing amino acids (protein hydrolysate) 1% w/v to approximate the buffering effect of natural saliva. Control experiments were effected using no saccharide in order to illustrate the endogenous metabolism of the organism. Each experiment was quadruplicated and was run at 37° C. The pH was measured at 0, 0.5, 1, 1.5,2, 3 and 4 hours.

[2] = West German Offenlegungsschrift No. 2700036; cited from earlier work
S. mutans [3] = assay: Scanning electron microscopy of glass with adherent cells; assay type: cell-based, Streptococcus mutans; conditions: sucrose medium; qualitative
[4] = system: germ-free Liverpool hooded rats inoculated orally with Streptococcus mutans NCT 10823; assay: (E) Gnotobiotic rat caries model; assay type: in vivo; conditions: 21 days; diet 33% skim milk, 67% carbohydrate; S. mutans NCT 10823; statement in words
Experimental: Studies were carried out on the effect of chlorodeoxysucroses on cariogenic food products, using 4,1',6'-trichloro-4,1',6'-trideoxygalactosucrose as the chlorodeoxysucrose. Cariogenicity was examined using the gnotobiotic rat caries model (see for example Drucker and Green, Arch. Oral Biol. Vol 23 pp 183-187).
The experiment involved the use of germ-free Liverpool hooded rats inoculated orally with Streptococcus mutans NCT 10823 (a caries-producing organism). The rats were fed a diet consisting essentially of 33% by weight skim milk and 67% by weight carbohydrate. The carbohydrate consisted of (i) starch, or (ii) sucrose, or (iii) starch together with sufficient of the chlorodeoxysucrose to give a sweetness as perceived by a human of the same order as that of the sucrose. After 21 days, the rats were sacrificed and the lower jaw lesions were counted to give a caries score for each rat (see Konig, Marthaler and Muhlemann, Dt. Zahn-Mund-u. Kieferheilk Vol. 29, 99-127).

S. mutans [5] = assay: (C) Further tests on pH reduction; assay type: cell-based, Streptococcus mutans; conditions: for effect on acid production / pH: statement in words, pooled 2, 3 and 4 hours
Experimental: as §1
Twelve sets of tests were carried out in the same way as described above at (A) but using solutions which were 0.055 molar in the respective chlorodeoxy derivative.
Solutions of the following were employed:
(i) Saline, negative control for endogenous metabolism
(ii) Sucrose, positive control
(iii) 6,1',6'-trichloro-6,1',6'-trideoxysucrose, compound no. 7.
(iv) Compound no. 7 plus sucrose.
(v) 1',6'-dichloro-1',6'-dideoxysucrose, compound no. 4
(vi) Compound no. 4 plus sucrose
(vii) 4,1',6'-trichloro-4,1',6'-trideoxygalactosucrose, Compound no. 5.
(viii) Compound no. 5 plus sucrose
(ix) 4,6,6'-trichloro-4,6,6'-trideoxygalactosucrose, Compound no. 6
(x) Compound no. 6 plus sucrose
(xi) 1'-chloro-1'-deoxysucrose, compound no. 1
(xii) Compound no. 1 plus sucrose
The acid production was monitored as before.

S. mutans [6] = assay: (B) Adherence to teeth: deposition of suspended cells on to glass (Magiscan image analyser); assay type: cell-based, Streptococcus mutans
From the text: (§2) The extent to which cells of S. mutans adhere to teeth was investigated using a recognized model system. Solutions of the same substances as in (A) were made up, and the degree of deposition of suspended cells on to glass was studied using a "Magiscan" image analyser (Talyer et al., 1978 Praktischen Metallographie, Sonderbande 8: 433-442).
Each reading is the mean of 40 determinations.

[7] = Acute oral toxicity in the rat; conditions: in vivo, per os, maximum dose practically possible
From the text: For example, in the rat the compound no.

S. mutans [8] = assay: (D) Further tests on adherence to teeth; assay type: cell-based, Streptococcus mutans; conditions: glass slide; 0.055 molar; Duncan procedure
Experimental: as §2
While recording the pH during the tests of (C), the adherence was monitored in the same way as in (B). The percentage coverage of a glass slide was determined at 0.5 and 4 hours for each solution, and the results treated by the Duncan procedure.

[9] = no amino acid, mean of 40 determinations

## OC[C@H]1O[C@H](O[C@]2(CCl)O[C@H](CCl)[C@@H](O)[C@@H]2O)[C@H](O)[C@@H](O)[C@H]1Cl [Compound no. 5, 4-chloro-4-deoxy-α-D-galactopyranosyl-1,6-dichloro-1,6-dideoxy-β-D-fructofuranoside]
[1]; 0 h
  pH: 5.88
[1]; 0.5 h
  pH: 5.67
[1]; 1.0 h
  pH: 5.69
[1]; 1.5 h
  pH: 5.69
[1]; 2.0 h
  pH: 5.61
[1]; 3.0 h
  pH: 5.67
[1]; 4.0 h
  pH: 5.63
[1]; Duncan Procedure sub-sets, amino acids where named in the solution
  Mean pH: 5.64
[1]; statement in words, listed as TGS
  effect on acid production: always had a favourable effect which was statistically significant; also recorded: reduced the amount of acid produced; also recorded: on its own had a favourable effect against the endogenous metabolism of the micro-organism
[2]
  sweetness relative to sucrose: many times sweeter than sucrose
S. mutans [3]
  extracellular coating and size of clumps of adherent cells: found to reduce the extracellular coating and the size of the clumps
[4]
  cariogenicity (caries score): appeared to be decreasing the cariogenicity of the starch
S. mutans [5]; 0.055 molar chlorodeoxy derivative, pooled data for 2, 3 and 4 hours, Duncan procedure
  Mean pH: 6.82
S. mutans [5]
  effect on acid production / pH: give a better result than the negative control, saline
S. mutans [5]; listed as (vii)
  effect on acid production / pH: one pH unit less than that of solution (ii)
S. mutans [5]; listed as no. 5
  effect on acid production / pH: especially effective
S. mutans [6]; Mann Whitney U-test, statement in words, listed as TGS
  degree of adhesion: reduces the degree of adhesion significantly; also recorded: the reduction is greater than that of xylitol
S. mutans [6]; [9]
  Coverage (%) after 0.5 h: 30.42%
  Coverage (%) after 4.0 h: 64.81%
[7]
  LD50: > 16000 mg/kg
S. mutans [8]
  % coverage after 0.5 hours: 41.4%
  % coverage after 4 hours: 58.4%
